This is an account of results in US10646538B2, “Self-assembling tripeptides” (ENDO Biologics, Inc., priority 2014, dated 2020).

“Also recorded” adds a separate entry of the source. Peptide text beside a SMILES is read from it.

Common to all, as to format: physicochemical
Series [1] can be described thus: Aggregation behaviour of tripeptides dissolved in water at pH 7. The settings on record: for solubility: water / D2O; for aggregation behavior on dissolving in water: water at pH 7, 30 mmol/L. As to the method:
Tripeptides were dissolved in water by sonication and vortexing, followed by bringing the pH to 7.2±0.1 by dropwise addition of 0.25 M NaOH solution to a final concentration of 30 mmol/L. These were diluted to 10 mmol/L for DLS and NMR experiments. Note that the KYF gel could also be prepared by direct dissolution into a 0.1 M phosphate buffer at pH 7. Characterization of the resulting samples took places at least 24 hours after sample preparation. Samples for FTIR and NMR analysis were prepared using D2O (99.9% D) and NaOD solution instead of H2O and NaOH.
The bottom half of Table 2 contains the tripeptides that were selected for synthesis and experimental characterization. The selection was made to include a wide range of AP and APH scores, including PFF (#1 from AP score) and KFD (#1 from APH score) and peptides that adhere to one or more of our design rules formulated above, such as KYF. […] These peptides were dissolved in water at pH 7 and their aggregation behavior was studied in order to test the predictive value of our method.

The nature of series [2]: Dynamic light scattering (DLS). The following applies: 10 mM at pH 7, 25° C. As to the method: The dynamic light scattering (DLS) measurements were carried out on 10 mmol/L peptide solutions (i.e. below the critical gelation concentration) by using a 3 DDLS spectrophotometer (LS instruments, Fribourg, Switzerland) using vertically polarized He—Ne laser light (25 mW with wavelength of 632.8 nm) with an avalanche photodiode detector at an angle of 90° at 25° C. Intensity autocorrelation functions were recorded and analyzed by means of the cumulant method in order to determine the intensity weighted diffusion coefficients D and the average hydrodynamic radius Rh by using the Stokes-Einstein equation, Rh=kBT/6πηD, where kB is the Boltzmann constant, T is the absolute temperature and η is the solvent viscosity at the given temperature.
To further confirm the presence (and size) of the peptide aggregates formed, dynamic light scattering (DLS) experiments were performed on the KYF gel, PFF suspension and KFD and GGG solutions.

Series [3] can be described thus: Diffusion Ordered NMR spectroscopy (DOSY). The following applies: 10 mM in D2O, pH 7, 298 K. An excerpt: DOSY spectra were acquired at 600 MHz using a Bruker Avance 600 spectrometer using the Bruker microprogram dstebpgp3sat at 298 K. The eddy current delay (Te) was set to 5 ms. The diffusion time was adjusted to 100 ms. […] The pulse gradient was increased from 2 to 95% of the maximum gradient strength using a linear ramp 16 k data points in the F2 dimension (20 ppm) and 16 data points in the F1 dimension were collected. […] This method is able to determine the diffusion coefficient D of supramolecular aggregates and therefore their relative size, as described by the Stokes-Einstein equation.^43,44 Diffusion constants for all the studied tripeptides can be found in Table 2. […] For the remaining peptides, DOSY results are in good agreement with the predicted aggregation propensity at 50 ns.

A short description of series [4]: FTIR spectroscopy, amide I region. The settings on record: 30 mM in D2O at pH 7. As to the method:
Samples were contained in a standard IR transmission cell (Harrick Scientific) between two 2 mm CaF2 windows, separated by a polytetrafluoroethylene (PFTE) spacer of 50 μm thickness. Spectra were recorded on a Bruker Vertex 70 spectrometer by averaging 25 scans at a spectral resolution of 1 cm^−1. Spectra were corrected for absorption from a phosphate buffer blank sample and absorptions from trifluoroacetic acid (TFA).
The secondary structure of the peptides can be probed by infrared (IR) spectroscopy.^45,46 When aggregation takes place via intermolecular hydrogen bonding of the amide groups, the 1650-1655 cm^−1 absorption observed for free peptides in solution typically narrows and shifts to lower frequency, while the 1595 cm^−1 peak, assigned to carboxylate groups, broadens or decreases in intensity due to protonation or salt bridge formation. […] Note that small absorption maxima in the 1670-1685 cm^−1 region are assigned to residual trifluoro-acetic acid absorption and the 1570-1580 cm^−1 band for KFD is assigned to the aspartic acid side chain carboxylate group.
For KYF, a dramatic change in the amide region was noticed upon gelation with intense IR absorption peaks at 1621 and 1649 cm^−1 for the amide groups and 1568 cm^−1 for salt-bridged carboxylate groups.

The nature of series [5]: TEM of tripeptide samples. The following applies: samples at pH 7. As to the method: Carbon-coated copper grids (200 mesh) were glow discharged in air for 30 s. The support film was touched onto the gel surface for 3 s and blotted down using filter paper. Negative stain ([…], 1% aqueous methylamine vanadate (Nanovan; Nanoprobes) was applied and the mixture was blotted again using filter paper to remove excess. The dried specimens were then imaged using a LEO 912 energy filtering transmission electron microscope operating at 120 kV fitted with 14 bit/2 K Proscan CCD camera

A short description of series [6]: pH dependence of the gelation of KYF. As to the method: We investigated the effects of pH on the gelation of the tripeptide KYF in aqueous solvent. […] The alteration of the pH will affect the protonation state of the ionisable groups on KYF i.e., N and C termini and the lysine side groups.
pH measurements were carried out ranging from pH 5 to 8. At each pH measurement an image was taken to show the gelation behaviour. The pH was altered using 0.5M NaOH which is added drop wise into the vial, vortexed to ensure a complete mix then the pH is measured until a stable value is obtained.
Initially, the peptide sample is dissolve in water and the pH is recorded. At this point the pH is below the pKa of the C-terminus therefore the terminal acid is protonated and gelation should not occur, which is what was observed.

Take `N[C@@H](Cc1ccccc1)C(=O)N[C@@H](Cc1c[nH]cn1)C(=O)N[C@@H](Cc1ccccc1)C(=O)O` [FHF] (H-Phe-His-Phe-OH): in series [1], the solubility entry is “poor solubility” and the “aggregation behavior on dissolving in water” value (“aggregation behavior” for short) is on record as “suspensions”.

`CC[C@H](C)[C@H](NC(=O)[C@H](Cc1ccc(O)cc1)NC(=O)[C@@H](N)Cc1ccccc1)C(=O)O` [FYI] (H-Phe-Tyr-Ile-OH): in series [1], the solubility entry is “poor solubility” and the “aggregation behavior” value is “precipitated”.

In the case of `NCC(=O)NCC(=O)NCC(=O)O` [GGG, reference compound] (H-Gly-Gly-Gly-OH), the “average hydrodynamic radius / relative size of the aggregates (DLS)” value in series [2] was found to be 0.10 μm. Moreover, the “diffusion constant (DOSY)” value in series [3] is recorded as “highest diffusion constant”.

Regarding `CC[C@H](C)[C@H](N)C(=O)N[C@@H](Cc1ccc(O)cc1)C(=O)N[C@@H](Cc1ccccc1)C(=O)O` [IYF] (H-Ile-Tyr-Phe-OH), in series [1], the solubility entry is listed as “poor solubility” and the “aggregation behavior” value was “precipitated”.

With `NCCCC[C@H](N)C(=O)N[C@@H](Cc1ccccc1)C(=O)N[C@@H](CC(=O)O)C(=O)O` [KFD] (H-Lys-Phe-Asp-OH), the “secondary structure from amide I IR absorption” value (shortened to “secondary structure”) in series [4] was “no extended secondary structure formation”. Also, the “average hydrodynamic radius / relative size of the aggregates (DLS)” value in series [2] was found to be 0.13 μm. The “nanostructure seen by TEM” value in series [5] was “strongly curved fibers together with more amorphous regions”. In series [3], the “diffusion constant (DOSY)” value is “intermediate diffusion rate”.

Consider `NCCCC[C@H](N)C(=O)N[C@@H](Cc1ccc(O)cc1)C(=O)N[C@@H](Cc1ccccc1)C(=O)O` [KYF] (H-Lys-Tyr-Phe-OH), for which, in series [4], the “secondary structure” value is listed as “well-ordered peptide nanostructure”. The “aggregation behavior” value in series [1] is recorded as “translucent self-supporting hydrogel”. In addition, in series [2], the “average hydrodynamic radius / relative size of the aggregates (DLS)” value is recorded as 0.26 μm. For the same molecule, the “pH of critical gelation” value in series [6] (aqueous, pH raised with 0.5M NaOH) is given as 6.9-7.05. For the same molecule, the gelation behaviour result in series [6] (pH 2.21 to 6.7, aqueous) was “remained as a clear solution”; in series [6] (pH 6.9, aqueous), “weak gel”; in series [6] (pH 7.05, aqueous), “self-supporting hydrogel”; in series [6] (pH 7.05 until 7.98, aqueous), “stronger gels”. For the same molecule, the “nanostructure seen by TEM” value in series [5] is listed as “entangled fibrous network”. Further, the “diffusion constant (DOSY)” value in series [3] was “lowest diffusion constant”.

`O=C(O)[C@H](Cc1ccccc1)NC(=O)[C@H](Cc1ccccc1)NC(=O)[C@@H]1CCCN1` [PFF] (H-Pro-Phe-Phe-OH): the “secondary structure” value in series [4] is on record as “β-sheet like arrangement of the amide groups”. For the same molecule, in series [1], the solubility result is given as “poor solubility; also recorded: low solubility” and the “aggregation behavior” value is on record as “suspensions”. The “average hydrodynamic radius / relative size of the aggregates (DLS)” value in series [2] was 0.70 μm. Moreover, the “nanostructure seen by TEM” value in series [5] is “short crystalline nanostructures with a large aspect ratio”.

With `N=C(N)NCCC[C@H](N)C(=O)N[C@@H](Cc1ccc(O)cc1)C(=O)N[C@@H](Cc1ccccc1)C(=O)O` [RYF] (H-Arg-Tyr-Phe-OH), the “aggregation behavior” value in series [1] is reported as “did not give a gel”.

As for `N[C@@H](CO)C(=O)N[C@@H](Cc1ccc(O)cc1)C(=O)N[C@@H](Cc1ccccc1)C(=O)O` [SYF] (H-Ser-Tyr-Phe-OH), the solubility result in series [1] is “insoluble in water”.
